Experimental findings from patent US5118346A, “Biocidally active compounds” (Ciba-Geigy Corporation, priority 1988, dated 1992) are described below.

Like-named read-outs stand apart in the source and are kept apart here. A value given as a limit tells only on which side of the number the result lay.

One assay relates to hydroids. As to the kind of experiment: Anti-fouling paint exposure in the North Sea. Particulars: 61/2 weeks, 0 = completely covered with growth, 10 = completely free. The protocol: (§1) To test the activity against growth on objects immersed in the sea, the compound according to Example 1 is incorporated into anti-fouling paints. An anti-fouling paint such as is known to the expert and which is based on vinyl chloride copolymer/rosin (2/1 part by weight) with a pigment volume concentration of about 40%, and a second anti-fouling paint of similar make-up but with a higher rosin content (vinyl chloride copolymer/rosin=1/1) are prepared. The compound according to Example 1 is incorporated into these paints, the paint is brushed onto specimen sheets and, after drying (10 days), the sheets are suspended in the North Sea. The corresponding paints but without adding of the product are exposed in the same way for comparison. On a rating scale of 0 (=completely covered with growth) to 10 (=completely free from growth), the following results are obtained after exposure for 61/2 weeks (growth by hydroids=HY; growth by barnacles=BA): […]

The subject of a further assay is barnacles. As to the kind of experiment: Anti-fouling paint exposure in the North Sea. Particulars: 61/2 weeks, 0 = completely covered with growth, 10 = completely free. The protocol:
as §1

For the next assay, the system named is Chaetomium globosum. As to the kind of experiment: Determination of the MIC against fungi, agar incorporation test. Format: cell-based. Particulars: for MIC: read-out: MIC against fungi, strain D. Here is the method: (§2) Strains: A) Aspergillus niger, B) Sacharomyces cerevisiae, C) Penicillium funiculosum, D) Chaetomium globosum, E) Aureobasidium pullulans and F) Coniophora puteana.
(§3) The investigation is carried out by the known agar incorporation test in malt extract agar (Merck). For the inhibition, the various compounds are in each case added in an amount such that concentrations of 10, 50 and 100 mg/1 result in the agar. The concentrations (mg/1) required for inhibiting the growth of the fungi (starting from fungus spores dripped on) are illustrated in Table 2.

The test system of assay [1] is Coniophora puteana. The description is as above. To be noted: for MIC: read-out: MIC against fungi, strain F. The assay is classed as cell-based. Here is the method: as §2, §3
The next assay deals with Aspergillus niger. Described as above. The assay is classed as cell-based. Particulars: for MIC: read-out: MIC against fungi, strain A. The protocol: as §2, §3
The test system of assay [2] is mixture of algae Chlorella vulgaris, Chlorella spec. and Scenedesmus obliques. The assay is described as follows: Algicide test in polyisobutylene roof sheeting. The assay is classed as cell-based. Particulars: for algae growth after 6 weeks: comparison film 2; for algae growth after 3 weeks: comparison film 2-3. The protocol:
To test the activity against attack by algae, various concentrations, which can be seen from Table 3, of the compound according to Example 1 are incorporated into roof sheeting consisting of polyisobutylene. A roof sheeting without biocide is investigated as a comparison.
A 1 cm^2 piece of film from each test strip is kept in water for 5 days, in each case placed on an algae agar plate and inoculated with 0.1 ml of a 1+1+1 mixture of 14-day cultures of the algae Chlorella vulgaris and Chlorella spec. (isolated from damage cases in practice) and Scenedesmus obliques, which had been diluted 1/10 in saline.
After 3 weeks, the plates are evaluated and the films are placed in fresh agar and inoculated again.
Evaluation of the growth after 3 and 6 weeks under artificial light is performed in accordance with the following scheme.
2=partial growth on the film
3=growth up to the edge of the film
4=inhibiting aerola around the film <5 mm
5=inhibiting aerola around the film >5 mm
Example 19 is repeated, except that instead of the stated concentrations of compound according to Example 1 alone, a combination of 1% by weight of the compound according to Example 1 and 0.07% by weight of 2-methylthio-4-t-butylamino-6-cyclopropylamino-s-triazine is used.

Another assay deals with wood-destroying fungi. The assay is described as follows: Limit of activity against wood-destroying Basidiomycetes (EN 113), summary. The source says:
(§4) Determination of the limit of the activity against wood-destroying Basidiomycetes bred on agar (in accordance with EN 113). The test methods described in this European Standard is a laboratory method which forms a basis for evaluation of the activity of a wood preservative against wood-destroying Basidiomycetes.

In assay [3] the test system is Coniophora puteana. As to the kind of experiment: Limit of activity against wood-destroying Basidiomycetes (EN 113). Also on record: species or system Coniophora puteana (Schumacher ex Fries) Karsten. To be noted: Coniophora puteana strain 91, pine, isopropanol/water (1:1), 16 weeks.
Text: as §4
Coniophora puteana (Schumacher ex Fries) Karsten, strain FPRL 11E, for soft timbers=strain 91, Breeding of the strain and composition of the nutrient medium were as described in EN 113.
(§5) Solutions of isopropanol/water (1:1) containing 0.2%, 0.5%, 1%, 2% and 5% of active substance according to Example 1 are prepared.
(§6) The specimen woods of pine, nominal dimensions: 50 mm×25 mm×15 mm, are obtained and prepared as described in EN 113.
(§7) The impregnation according to EN 113 ensures complete thorough impregnation of the specimen woods with the wood preservative solution.
(§8) The amount of preservative absorbed is converted into weight per unit volume of the wood. […]
(§9) The limit of the activity of a wood preservative is determined by the two amounts of wood preservative which correspond to the lowest concentration which preserves the wood and the next lowest concentration in the series, at which the wood is no longer adequately preserved. […]

A further assay relates to Gleophyllum trabeum. The assay is described as above. Particulars: Gleophyllum trabeum strain 94, pine, 16 weeks. On the set-up: species or system Gloeophyllum trabeum (Persoon ex Fries) Murrill.
Text: as §4
Gloeophyllum trabeum (Persoon ex Fries) Murrill, strain […], for soft timbers=strain 94, Breeding of the strain and composition of the nutrient medium were as described in EN 113.
as §5, §6, §7, §8, §9

A further assay concerns Poria placenta. The description is as above. Also on record: species or system Poria placenta (Fries) Cooke sensu. J. Eriksson. Particulars: Poria placenta strain 96, pine, isopropanol/water (1:1), 16 weeks.
Text: as §4
Poria placenta (Fries) Cooke sensu. J. Eriksson, strain SPRL 280, for soft timbers=strain 96, Breeding of the strain and composition of the nutrient medium were as described in EN 113.
as §5, §6, §7, §8, §9

Another assay deals with Penicillium funiculosum. As to the kind of experiment: Determination of the MIC against fungi, agar incorporation test. The assay is classed as cell-based. Particulars: for MIC: Talaromyces funiculosus, read-out: MIC against fungi, strain C. The protocol: as §2
(§10) The investigation is carried out by the known agar incorporation test in malt extract agar (Merck).

The next assay concerns Aureobasidium pullulans. Described as above. Format: cell-based. To be noted: for MIC: read-out: MIC against fungi, strain E. Here is the method:
as §2, §10

The subject of a further assay is Sacharomyces cerevisiae. The assay is described as above. The assay is classed as cell-based. To be noted: for MIC: read-out: MIC against fungi, strain B. Here is the method: as §2, §10
Where [4] appears, read: malt extract agar, tested 10, 50, 100 mg/l.
The mark [5] stands for this setting: Penicillium funiculosum, malt extract agar, tested 10, 50, 100 mg/l.
[6] abbreviates: Sacharomyces cerevisiae, malt extract agar, tested 10, 50, 100 mg/l.

With `CCCCCCCCCCCCCC[P+](CCCC)(CCCC)CCCC` [Example 1, Tri-n-butyl-n-tetradecylphosphonium tetrafluoborate], the “growth by hydroids (HY), rating” value in the assay on hydroids (Vinyl/rosin 1:1 paint with additive, without additive HY 0) turned out to be 4; with hydroids (Vinyl/rosin 2:1 paint with additive, without additive HY 5), 8. For the same compound, the “growth by barnacles (BA), rating” value with barnacles (Vinyl/rosin 1:1 paint with additive, without additive BA 0) is reported as 10; in the assay with barnacles (Vinyl/rosin 2:1 paint with additive, without additive BA 5) it was 8. In the assay on Chaetomium globosum (setting [4]), the “MIC against fungi, strain D” value stood at 10 µg/mL. Also, in the assay on Coniophora puteana [1] (setting [4]), the “MIC against fungi, strain F” value came to 10 µg/mL. In addition, the MIC is 50 µg/mL in the assay on Aspergillus niger (setting [4]), 10 µg/mL in the assay on Penicillium funiculosum (setting [5]), 50 µg/mL with Aureobasidium pullulans (setting [4]) and 10 µg/mL in the assay on Sacharomyces cerevisiae (setting [6]). Moreover, the “algae growth after 6 weeks” value in assay [2] (0,1 % by weight in film), in assay [2] (0,5 % by weight in film) and in assay [2] (1 % by weight in film) was 4 (inhibiting aerola around the film <5 mm) in each case. Besides, the “algae growth after 3 weeks” value in assay [2] (0,1 % by weight in film), in [2] (0,5 % by weight in film) and in [2] (1 % by weight in film) was 4 (inhibiting aerola around the film <5 mm) each time. The “activity against wood-destroying fungi” value in the assay on wood-destroying fungi is recorded as “highly effective”. In addition, the Effective concentration in the assay on Coniophora puteana [3] is on record as 0.5-1.0%; with Gleophyllum trabeum (isopropanol/water (1:1)), at most 0.2%; with Poria placenta, 1.0-2.0%. The “Take-up (limit of the activity)” value in the assay on Gleophyllum trabeum is on record as at most 1.0 kg/m^3.
Take `CCCCCCCCCCCCCC[P+](CCCC)(CCCC)CCCC` [Example 2, Tri-n-butyl-n-tetradecylphosphonium hexafluophosphate]: the “MIC against fungi, strain D” value with Chaetomium globosum (setting [4]) was 100 µg/mL. The “MIC against fungi, strain F” value against Coniophora puteana [1] (setting [4]) worked out at 100 µg/mL. Also, the “MIC against fungi, strain A” value in the assay on Aspergillus niger (setting [4]) amounted to 100 µg/mL. Besides, the “MIC against fungi, strain C” value in the assay with Penicillium funiculosum (setting [5]) was 10 µg/mL. In the assay with Aureobasidium pullulans (setting [4]), the “MIC against fungi, strain E” value stood at 50 µg/mL. Besides, the “MIC against fungi, strain B” value against Sacharomyces cerevisiae (setting [6]) was 10 µg/mL.
On to `CCCCCCCCCCCC[P+](c1ccccc1)(c1ccccc1)c1ccccc1` [Example 3, Triphenyl-n-dodecylphosphonium tetrafluoborate], for which the minimum inhibitory concentration (MIC) in the assay with Chaetomium globosum was found to be 50 µg/mL; in the assay with Coniophora puteana [1], 50 µg/mL; in the assay on Aspergillus niger, 100 µg/mL; with Penicillium funiculosum, 10 µg/mL; in the assay with Aureobasidium pullulans it was 10 µg/mL; in the assay with Sacharomyces cerevisiae it was 50 µg/mL.
`CCCCCCCCCCCCCC[N+](CCCC)(CCCC)CCCC` [Example 5, Tri-n-butyl-n-tetradecylammonium tetrafluoborate]: the MIC with Chaetomium globosum (setting [4]) worked out at 50 µg/mL; with Coniophora puteana [1] it was 100 µg/mL; in the assay on Aspergillus niger, 100 µg/mL; with Penicillium funiculosum (setting [5]), 50 µg/mL; in the assay on Aureobasidium pullulans (setting [4]), 50 µg/mL; in the assay with Sacharomyces cerevisiae (setting [6]) it was 50 µg/mL.
Regarding `CCCCCCCCCCCC[N+](CCO)(CCO)Cc1ccccc1` [Example 6, Bis(hydroxyethyl)benzyl-n-dodecylammonium tetrafluoborate], the MIC with Chaetomium globosum (setting [4]) is 50 µg/mL; in the assay with Coniophora puteana [1] (setting [4]), 50 µg/mL; in the assay with Aspergillus niger it was above 100 µg/mL; with Penicillium funiculosum (setting [5]) it was 10 µg/mL; in the assay with Aureobasidium pullulans (setting [4]), 10 µg/mL; with Sacharomyces cerevisiae (setting [6]) it was 50 µg/mL.
`CCCCCCCCCCCC[N+](CC)(CC)CC` [Example 7]: the MIC with Chaetomium globosum (setting [4]) is 100 µg/mL; in the assay with Coniophora puteana [1] (setting [4]) it was 50 µg/mL; in the assay with Aspergillus niger (setting [4]), above 100 µg/mL; in the assay on Penicillium funiculosum (setting [5]) it was 50 µg/mL; with Aureobasidium pullulans (setting [4]) it was 50 µg/mL; in the assay with Sacharomyces cerevisiae (setting [6]) it was above 100 µg/mL.
With `CCCCCCCCCCCCCC[N+](CC)(CC)CC` [Example 8], the minimal inhibitory concentration (MIC) in the assay with Chaetomium globosum (setting [4]), with Coniophora puteana [1] (setting [4]) and with Aspergillus niger (setting [4]) was 50 µg/mL each time.
As for `CCCCCCCCCCCCCCCCCC[N+](CC)(CC)CC` [Example 9], the MIC was 50 µg/mL in the assay on Chaetomium globosum (setting [4]); 50 µg/mL in the assay with Coniophora puteana [1] (setting [4]); above 100 µg/mL in the assay on Aspergillus niger (setting [4]); 50 µg/mL with Penicillium funiculosum (setting [5]); 50 µg/mL in the assay on Aureobasidium pullulans (setting [4]); above 100 µg/mL in the assay with Sacharomyces cerevisiae (setting [6]).
For `CCCCCCCCCCCCCC[N+](CCC)(CCC)CCC` [Example 10], the MIC is 50 µg/mL in the assay on Chaetomium globosum (setting [4]); 10 µg/mL in the assay with Coniophora puteana [1] (setting [4]); 100 µg/mL in the assay with Aspergillus niger (setting [4]); 50 µg/mL in the assay with Penicillium funiculosum (setting [5]); 10 µg/mL with Aureobasidium pullulans (setting [4]); 100 µg/mL in the assay on Sacharomyces cerevisiae (setting [6]).
As for `CCCCCCCCCCCCCCCC[N+](CC)(CC)CC` [Example 13], the minimal inhibitory concentration (MIC) in the assay with Chaetomium globosum (setting [4]) amounted to 100 µg/mL; in the assay on Coniophora puteana [1] (setting [4]), 10 µg/mL; in the assay on Aspergillus niger (setting [4]) it was 100 µg/mL; in the assay with Penicillium funiculosum (setting [5]) it was 10 µg/mL; in the assay with Aureobasidium pullulans (setting [4]) it was 50 µg/mL; with Sacharomyces cerevisiae (setting [6]) it was 100 µg/mL.
In the case of `CCCCCCCCCCCC[N+]1(Cc2ccccc2)CCOCC1` [Example 14], the MIC in the assay on Chaetomium globosum is 100 µg/mL; in the assay with Coniophora puteana [1] (setting [4]), 50 µg/mL; in the assay with Aspergillus niger it was above 100 µg/mL; with Penicillium funiculosum (setting [5]) it was 50 µg/mL; in the assay on Aureobasidium pullulans, 10 µg/mL; in the assay with Sacharomyces cerevisiae it was above 100 µg/mL.

One may read the MIC as the lowest concentration that inhibits growth of the organism.
